pEC50: −log10 of the molar value.
How the values were obtained:
Assay type in all cases: cell-based
[1] = system: primary human fibroblasts derived from IPF patients (LL29 cells); assay: Inhibition of the fibrotic process: αSMA staining in TGF-β1 treated LL29 fibroblasts; settings: Fibroblast; for pEC50: 96 h, LL29 cells, TGF-β1 20 ng/mL, 4 days, % αSMA positive cells; for inhibition at 10 µM: read-out: percent inhibition at 10 μM
Outline: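 Read-out after 4-day incubation: αSMA staining with 1 μM SYTOX green nuclear counterstain (30 min, room temperature). Cells were LL29 primary fibroblasts from IPF patients, in 1% FBS F12, exposed to TGF-β1 with test compound, referenced to TGF-β1/DMSO control wells.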

IL-6 = IL-6 inhibition in LPS-stimulated THP-1 cells (HTRF); settings: Homo sapiens; for inhibition at 10 µM: THP-1, read-out: percent inhibition at 10 μM; for pEC50: THP-1 cells, LPS 500 ng/mL, 22 hours, IL6 HTRF
Outline: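 After 24 h in 1% FBS medium, cells had compound 2 h before 500 ng/mL LPS, then 22 h more at 37 °C. DMSO-normalized HTRF signal (665/620 nm ratio, anti-IL-6 antibody pair) was fitted with a variable-slope four-parameter model to give EC50.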

SW480 colon cancer cells = assay: Cell viability assay (CellTiter-Blue) in SW480 colon cancer cells; settings: Homo sapiens; for pEC50: 96 h, SW480 cell viability, four days, CellTiter-Blue; for inhibition at 10 µM: SW480, read-out: percent inhibition at 10 μM
Outline: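 Fluorescence from resazurin reduced to resorufin by metabolically active cells was the read-out, taken after ~3 h with CellTiter-Blue.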

Wnt activity = Wnt activity screening assay, Sp5-Luc reporter gene in SW480 cells; settings: Homo sapiens; for inhibition at 10 µM: SW480, read-out: percent inhibition at 10 μM; for pEC50: Sp5-Luc reporter, SW480 cells, overnight incubation
Outline: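 Read-out is BrightGlo luminescence, normalized to DMSO-treated cells and fitted by four-parameter variable-slope regression for EC50. Reporter cells: SW480 colon carcinoma carrying a stable lentiviral Sp5-Luc construct with eight TCF/LEF sites, seeded 4,000/well in 1% FBS, incubated overnight at 37° C.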

[2] = system: primary human mesenchymal stem cells (hMSCs); assay: Induction of chondrogenesis in hMSCs (nodule count, Rhodamine B/Nile Red); settings: 6 days; for Emax: relative to TGF-β3 (10 ng/mL) positive control, read-out: Max. Activity as % TGF-β3 activity; for EC50: concentration required to induce 50% levels of chondrogenesis vs TGF-β3, read-out: Conc (nM) of 50% TGF-β3 activity
Description: Representative compounds were screened using primary human mesenchymal stem cells (hMSCs) to determine their ability to induce chondrogenesis (process by which cartilage is developed).
Primary human mesenchymal stem cells (hMSCs) were purchased from Lonza (Walkersville, Md.) and expanded in Mesenchymal Stem Cell Growth Media (Lonza). Cells between passage 3 and 6 were used for the experiments.
To image chondrogenic nodules, the cells were fixed using 4% formaldehyde (Electron Microscopy Sciences), and stained with 2 μg/mL Rhodamine B (Sigma-Aldrich) and 20 μM Nile Red (Sigma-Aldrich) [Johnson K., et.al, A Stem Cell-Based Approach to Cartilage Repair, Science, (2012). […] Number of nodules in each well was normalized to the average of 3 DMSO treated wells on the same plate using Excel (Microsoft Inc.). The normalized averages (fold change over DMSO) of 3 replicate wells for each compound concentration were calculated. Due to solubility limitations of some of the compounds, curve fitting was incomplete leading to inaccurate EC50 determinations.
Using TGF-β3 as a positive control, the concentration of representative compounds required to induce 50% levels of chondrogenesis is reported. In addition, the maximum activity of each compound and the respective dose that each compound reached maximum chondrogenesis activity is reported.

Structure (SMILES) | pEC50 (IL-6) | pEC50 (SW480 colon cancer cells) | pEC50 (Wnt activity) | EC50 [2] [nM] | pEC50 [1] | inhibition at 10 µM (IL-6) [%] | inhibition at 10 µM (SW480 colon cancer cells) [%] | inhibition at 10 µM (Wnt activity) [%] | Emax [2] [%] | inhibition at 10 µM [1] [%]
Nc1cncc(-c2cc3c(-c4cc5c(N6CCCCC6)cncc5[nH]4)n[nH]c3cn2)c1 [Compound 171, 5-(3-(4-(Piperidin-1-yl)-1H-pyrrolo[2,3-c]pyridin-2-yl)-1H-pyrazolo[3,4-c]pyridin-5-yl)pyridin-3-amine] | 5.87 | 5.29 | 5.53 | 30 | 5.58 | – | – | – | 94 | –
CC(C)Nc1cncc(-c2cc3c(-c4cc5c(-c6cc(F)cc(CNS(C)(=O)=O)c6)cncc5[nH]4)n[nH]c3cn2)c1 [Compound 488, N-(3-Fluoro-5-(2-(5-(5-(isopropylamino)pyridin-3-yl)-1H-pyrazolo[3,4-c]pyridin-3-yl)-1H-pyrrolo[2,3-c]pyridin-4-yl)benzyl)methanesulfonamide] | < 5.00 | < 5.00 | 5.37 | – | 5.59 | 46.8 | 11 | – | 17 | –
CS(=O)(=O)NCc1cc(F)cc(-c2cncc3[nH]c(-c4n[nH]c5cnc(-c6cncc(CN7CCCC7)c6)cc45)cc23)c1 [Compound 490, N-(3-Fluoro-5-(2-(5-(5-(pyrrolidin-1-ylmethyl)pyridin-3-yl)-1H-pyrazolo[3,4-c]pyridin-3-yl)-1H-pyrrolo[2,3-c]pyridin-4-yl)benzyl)methanesulfonamide] | < 5.00 | < 5.00 | < 5.00 | – | < 5.00 | 0 | 17.4 | 8.5 | 8 | 21.4
CS(=O)(=O)NCc1cc(F)cc(-c2cncc3[nH]c(-c4n[nH]c5cnc(-c6cncc(NC(=O)C7CCC7)c6)cc45)cc23)c1 [Compound 497, N-(5-(3-(4-(3-Fluoro-5-(methylsulfonamidomethyl)phenyl)-1H-pyrrolo[2,3-c]pyridin-2-yl)-1H-pyrazolo[3,4-c]pyridin-5-yl)pyridin-3-yl)cyclobutanecarboxamide] | < 5.00 | < 5.00 | < 5.00 | – | < 5.00 | 0 | 14.1 | 6.4 | 15 | 27.8

Further lines, with some results ahead:

pEC50 (IL-6) | pEC50 (SW480 colon cancer cells) | pEC50 (Wnt activity) | EC50 [2] [nM] | Structure (SMILES) | pEC50 [1] | inhibition at 10 µM (IL-6) [%] | inhibition at 10 µM (SW480 colon cancer cells) [%] | inhibition at 10 µM (Wnt activity) [%] | Emax [2] [%] | inhibition at 10 µM [1] [%]
< 5.00 | < 5.00 | < 5.00 | – | CC(C)(C)C(=O)Nc1cncc(-c2cc3c(-c4cc5c(-c6ccncc6)cncc5[nH]4)n[nH]c3cn2)c1 [Compound 120, N-(5-(3-(4-(Pyridin-4-yl)-1H-pyrrolo[2,3-c]pyridin-2-yl)-1H-pyrazolo[3,4-c]pyridin-5-yl)pyridin-3-yl)pivalamide] | 5.27 | 16.4 | 29 | 22 | 30 | –
< 5.00 | < 5.00 | < 5.00 | 30 | CN(C)Cc1cncc(-c2cc3c(-c4cc5c(-c6ccncc6)cncc5[nH]4)n[nH]c3cn2)c1 [Compound 125, N,N-Dimethyl-1-(5-(3-(4-(pyridin-4-yl)-1H-pyrrolo[2,3-c]pyridin-2-yl)-1H-pyrazolo[3,4-c]pyridin-5-yl)pyridin-3-yl)methanamine] | < 5.00 | 0 | 5.3 | 18.7 | 52 | 2.9
< 5.00 | < 5.00 | < 5.00 | – | CC(C)CC(=O)Nc1cncc(-c2cc3c(-c4cc5c(-c6cc(F)cc(CNS(C)(=O)=O)c6)cncc5[nH]4)n[nH]c3cn2)c1 [Compound 478, N-(5-(3-(4-(3-Fluoro-5-(methylsulfonamidomethyl)phenyl)-1H-pyrrolo[2,3-c]pyridin-2-yl)-1H-pyrazolo[3,4-c]pyridin-5-yl)pyridin-3-yl)-3-methylbutanamide] | < 5.00 | 18.9 | 4.1 | 18.8 | 24 | 37.6

Reference: US10383861B2, “3-(1H-pyrrolo[2,3-C]pyridin-2-yl)-1H-pyrazolo[3,4-C]pyridines and therapeutic uses thereof” (Samumed, LLC, priority 2015, dated 2019)
